According to patent US11224604B2, “Treatment of graft versus host disease in transplant patients” (PRIOTHERA LIMITED, priority 2013, dated 2022):

Test system: lethal GvHD in mice
Assay: lethal GvHD in mice (BALB/c splenic cells into cyclophosphamide-treated BDF1 mice)
Format: in vivo
Settings: day 1 to day 20
Protocol: Female BALB/cAnNCrj mice and female Crj:BDF1 mice were purchased from CHARLES RIVER JAPAN and used at 10 weeks of age as donors and recipients, respectively.
Spleens were collected from donor BALB/c mice. […] The single cell suspension was passed through a cell strainer (70 um, FALCON). The filtrate was centrifuged to collect the cell pellet. […] The number of nucleated cells in the suspension was calculated by staining using Turk's solution. […] This suspension served as a splenic cell suspension.
Recipient BDF1 mice were treated with a dose of cyclophosphamide (SHIONOGI & CO., LTD.) at 300 mg/kg intraperitoneally on day0. One day after cyclophosphamide treatment, the BDF1 mice were intravenously injected with 0.25 mL
(5×10^7 cells/mouse) of the splenic cell suspension from BALB/c mice to induce lethal GvHD.
Treatment with a Compound (Control/CsA/KRP203)
The compounds were orally administrated once a day from day 1 (just after injection of the splenic cells) to day 20. The mice were observed until day 70.

Measured: % Survival

NC(CO)(CO)CCc1ccc(Sc2cccc(OCc3ccccc3)c2)cc1Cl [KRP-203, 2-amino-2-[4-(3-benzyloxyphenylthio)-2-chlorophenyl]ethyl-propane-1,3-diol]
33%: KRP-203 0.01 mg/kg orally once a day, Day 40 after injection of the splenic cells | KRP-203 0.01 mg/kg orally once a day, Day 70 after injection of the splenic cells
44%: KRP-203 0.01 mg/kg orally once a day, Day 12 after injection of the splenic cells | KRP-203 0.01 mg/kg orally once a day, Day 20 after injection of the splenic cells | KRP-203 0.01 mg/kg orally once a day, Day 25 after injection of the splenic cells | KRP-203 0.01 mg/kg orally once a day, Day 30 after injection of the splenic cells
100%: KRP-203 0.01 mg/kg orally once a day, Day 5 after injection of the splenic cells | KRP-203 0.03 mg/kg orally once a day, Day 5 after injection of the splenic cells | KRP-203 0.03 mg/kg orally once a day, Day 8 after injection of the splenic cells | KRP-203 0.03 mg/kg orally once a day, Day 10 after injection of the splenic cells | KRP-203 0.03 mg/kg orally once a day, Day 12 after injection of the splenic cells | KRP-203 0.03 mg/kg orally once a day, Day 20 after injection of the splenic cells | KRP-203 0.03 mg/kg orally once a day, Day 25 after injection of the splenic cells | KRP-203 0.03 mg/kg orally once a day, Day 30 after injection of the splenic cells | KRP-203 0.03 mg/kg orally once a day, Day 40 after injection of the splenic cells | KRP-203 0.03 mg/kg orally once a day, Day 70 after injection of the splenic cells | KRP-203 0.1 mg/kg orally once a day, Day 5 after injection of the splenic cells | KRP-203 0.1 mg/kg orally once a day, Day 8 after injection of the splenic cells | KRP-203 0.1 mg/kg orally once a day, Day 10 after injection of the splenic cells | KRP-203 0.1 mg/kg orally once a day, Day 12 after injection of the splenic cells | KRP-203 0.1 mg/kg orally once a day, Day 20 after injection of the splenic cells | KRP-203 0.1 mg/kg orally once a day, Day 25 after injection of the splenic cells | KRP-203 0.1 mg/kg orally once a day, Day 30 after injection of the splenic cells | KRP-203 0.1 mg/kg orally once a day, Day 40 after injection of the splenic cells | KRP-203 0.1 mg/kg orally once a day, Day 70 after injection of the splenic cells | KRP-203 0.3 mg/kg orally once a day, Day 5 after injection of the splenic cells | KRP-203 0.3 mg/kg orally once a day, Day 8 after injection of the splenic cells | KRP-203 0.3 mg/kg orally once a day, Day 10 after injection of the splenic cells | KRP-203 0.3 mg/kg orally once a day, Day 12 after injection of the splenic cells | KRP-203 0.3 mg/kg orally once a day, Day 20 after injection of the splenic cells | KRP-203 0.3 mg/kg orally once a day, Day 25 after injection of the splenic cells | KRP-203 0.3 mg/kg orally once a day, Day 30 after injection of the splenic cells | KRP-203 0.3 mg/kg orally once a day, Day 40 after injection of the splenic cells | KRP-203 0.3 mg/kg orally once a day, Day 70 after injection of the splenic cells | KRP-203 1 mg/kg orally once a day, Day 5 after injection of the splenic cells | KRP-203 1 mg/kg orally once a day, Day 8 after injection of the splenic cells | KRP-203 1 mg/kg orally once a day, Day 10 after injection of the splenic cells | KRP-203 1 mg/kg orally once a day, Day 12 after injection of the splenic cells | KRP-203 1 mg/kg orally once a day, Day 20 after injection of the splenic cells | KRP-203 1 mg/kg orally once a day, Day 25 after injection of the splenic cells | KRP-203 1 mg/kg orally once a day, Day 30 after injection of the splenic cells | KRP-203 1 mg/kg orally once a day, Day 40 after injection of the splenic cells | KRP-203 1 mg/kg orally once a day, Day 70 after injection of the splenic cells
89%: KRP-203 0.01 mg/kg orally once a day, Day 8 after injection of the splenic cells
67%: KRP-203 0.01 mg/kg orally once a day, Day 10 after injection of the splenic cells
